This is an account of results in patent publication US8697658B2, “Glycoside compounds” (National Health Research Institutes, priority 2011, dated 2014).

Assay [1] has as its system Male Sprague-Dawley rats. Nature of the assay: In vivo urine glucose excretion assay. Also noted: species or system rat. Particulars: single oral dose 0.1, 1, 10, and 50 mg/kg, then 50% glucose solution 2 g/kg orally, 24-hour urine collection. As to the method:
Male Sprague-Dawley rats were used for glucosuria assessment. Male Sprague-Dawley rats of 8-10 weeks old were obtained from BioLasco, Ilan, Taiwan. The rats to be tested were fasted overnight and divided into 6 weight-matched groups. The rats were mildly anesthetized with a mixed gas of 30% O2 and 70% CO2 by inhalation and were orally gavaged with a single dose of the tested compounds (0.1, 1, 10, and 50 mg/kg), dapagliflozin (reference compound, 1 mg/kg), or vehicle. Each of the tested rats was subsequently dosed orally with 50% glucose solution (2 g/kg). The rats were returned to metabolism cages (ISHIHALA, Tokyo, Japan) for 24-hour urine collection and were re-fed at 1 h after the glucose challenge. Volume of the urine was measured and recorded. The urine samples were measured for glucose levels by a DRI-CHEM 3500 analyzer (FUJI, Tokyo, Japan). A P value of less than 0.05 was considered statistically significant.

Assay [2] relates to Streptozotocin-induced diabetes rats. Nature of the assay: In vivo anti-hyperglycemia assay. Also noted: species or system rat. Particulars: streptozotocin-induced diabetic rats, single oral dose, blood glucose at 0-5 hr, various dosages. As to the method:
Streptozotocin-induced diabetes rats were used for assessment of blood glucose lowering effect. Adult male Sprague Dawley rats were obtained from BioLasco, Ilan, Taiwan. The rats received an intraperitoneal injection of streptozotocin (Sigma, Cat. No. S0130, St. Louis, Mo., USA) at a concentration of 65 mg/kg every other day. The streptozotocin solution was freshly prepared in 0.01 M citrate buffer. Blood samples were collected via tail vein with a 25 G needle once a week and were tested using a blood glucometer (ACCU-CHEK® from Roche, Basel, Schweiz) for glucose level. A glucose level of higher than 450 mg/dL indicates streptozotocin-induced diabetes. The diabetic rats were divided into 3-6 groups and were orally administered with a single dose of the tested compounds, dapagliflozin (reference compound), or vehicle. Blood samples were collected via tail vein at 0 (pre-dose), 0.5, 1, 2, 3, 4, and 5 hr after the oral administration and were measured for blood glucose levels with the glucometer. A P value of less than 0.05 was considered statistically significant.

For `CCOc1ccc(Cc2cc([C@@H]3O[C@H](C=NNC(=O)c4ccccc4)[C@@H](O)[C@H](O)[C@H]3O)ccc2Cl)cc1` [Compound 93], the “effect in increasing urinary glucose excretion” value in assay [1] is reported as “strong effect in increasing urinary glucose excretion in a dose-dependent manner”. The “anti-hyperglycemia effect (blood glucose lowering)” value in assay [2] was “strong anti-hyperglycemia effect”. Take `CCOc1ccc(Cc2cc([C@@H]3O[C@H](C=NOC)[C@@H](O)[C@H](O)[C@H]3O)ccc2Cl)cc1` [Compound 71]: the “effect in increasing urinary glucose excretion” value in assay [1] is “strong effect in increasing urinary glucose excretion in a dose-dependent manner”.

Turning to `O[C@@H]1[C@@H](O)[C@H](c2cn(Cc3ccc(C4CC4)cc3)c3c(F)cccc23)OC[C@H]1O` [Compound 108], the “anti-hyperglycemia effect (blood glucose lowering)” value in assay [2] was “strong anti-hyperglycemia effect”. In the case of `CCOc1ccc(Cc2cc([C@@H]3O[C@H](C=NNC(=S)NC)[C@@H](O)[C@H](O)[C@H]3O)ccc2Cl)cc1` [Compound 87], the “effect in increasing urinary glucose excretion” value in assay [1] is reported as “strong effect in increasing urinary glucose excretion in a dose-dependent manner”. For the same compound, in assay [2], the “anti-hyperglycemia effect (blood glucose lowering)” value is given as “strong anti-hyperglycemia effect”. Taken in the same sequence, the figures for `CCOc1ccc(Cc2cc([C@@H]3O[C@H](C=NO)[C@@H](O)[C@H](O)[C@H]3O)ccc2Cl)cc1` [Compound 70] were “strong effect in increasing urinary glucose excretion in a dose-dependent manner” and “strong anti-hyperglycemia effect”.

For the compound `CCOc1ccc(Cc2cc([C@@H]3O[C@H](CNOC)[C@@H](O)[C@H](O)[C@H]3O)ccc2Cl)cc1` [Compound 79], in assay [1], the “effect in increasing urinary glucose excretion” value was “strong effect in increasing urinary glucose excretion in a dose-dependent manner”. Consider `CCOc1ccc(Cc2cc([C@@H]3O[C@H](C=NNCCO)[C@@H](O)[C@H](O)[C@H]3O)ccc2Cl)cc1` [Compound 78], for which the “effect in increasing urinary glucose excretion” value in assay [1] is reported as “strong effect in increasing urinary glucose excretion in a dose-dependent manner”. Besides, the “anti-hyperglycemia effect (blood glucose lowering)” value in assay [2] is “strong anti-hyperglycemia effect”. As for `CCOc1ccc(Cc2cc([C@@H]3O[C@H](C=NNC(=O)c4cccs4)[C@@H](O)[C@H](O)[C@H]3O)ccc2Cl)cc1` [Compound 81], the “effect in increasing urinary glucose excretion” value in assay [1] was “strong effect in increasing urinary glucose excretion in a dose-dependent manner”. Take `CCOc1ccc(Cc2cc([C@@H]3O[C@H](C=NNC(=O)c4ccc(Cl)s4)[C@@H](O)[C@H](O)[C@H]3O)ccc2Cl)cc1` [Compound 95]: the “effect in increasing urinary glucose excretion” value in assay [1] is “strong effect in increasing urinary glucose excretion in a dose-dependent manner”. Moreover, the “anti-hyperglycemia effect (blood glucose lowering)” value in assay [2] was “strong anti-hyperglycemia effect”.
